# Like-named read-outs stand apart in the source and are kept apart here.
# How the values were obtained:
# [1] = system: hypoxia response element-beta-lactamase (HRE–bla); assay: HRE-bla reporter gene assay in ME-180 cells; format: cell-based, human; settings: for Emax / IC50: Homo sapiens
# HRE–bla ME-180 cells = assay: Viability (BLA): CellTiter-Glo counter screen in HRE–bla cells; format: cell-based, human; settings: for Viability (BLA) confirmatory IC50: Table S7, 1% O2, 18 h; for IC50: 1% O2, 18 h
# HCT116 cells = assay: Cancer cell proliferation assay, HCT116; format: cell-based, human; settings: for IC50 / Emax: Homo sapiens; for Emax: read-out: HCT116 3-Day Viability Efficacy
# ME-180 cells = assay: Cancer cell proliferation assay, ME-180; format: cell-based; settings: Homo sapiens; for Emax: read-out: ME-180 3-Day Viability Efficacy
# [2] = system: co-cultures of human aortic endothelial cells and human mesenchymal stem cells; assay: In vitro angiogenesis co-culture assay (tube formation); format: cell-based; settings: three-day exposure; for IC50 / Emax: Homo sapiens, 72 h, Table 1; for IC50: tube formation; for Emax: percentage of inhibition compared to DMSO controls, read-out: Angiogenesis Efficacy (converted); for Angiogenesis inhibition, result in words: co-culture assay
# HIF-1α–NanoLuc = HIF-1α–NanoLuc reporter gene assay (qHTS primary and confirmatory screens); format: cell-based, human; settings: Homo sapiens
# [3] = system: HIF-1α–NanoLuc HCT116 cells; assay: Viability (Luc): CellTiter-Glo counter screen in HIF-1α–NanoLuc cells; format: cell-based, human; settings: for Viability (Luc) confirmatory IC50: Table S7, 1% O2, 18 h
# hypoxia signaling genes = assay: Real-time qPCR of human hypoxia signaling gene panel in ME-180 cells; settings: 1% O2, 18 h, at IC50 concentration of HIF-1α–NanoLuc assay
# [4] = ME-180, Table 1, percentage of inhibition compared to DMSO controls, read-out: HRE-bla Efficacy (converted)
# [5] = ME-180, Table S7, confirmatory screen, read-out: HRE–bla confirmatory Efficacy
# [6] = Table 1, ME-180 cells, 1% O2, 18 h, read-out: HRE-bla IC50
# [7] = HCT-116, Table 1, 72 h, read-out: 72-hr Viability HCT116 IC50
# [8] = ME-180, Table 1, 72 h, read-out: 72-hr Viability ME-180 IC50
# [9] = HCT-116, Table 1, HCT116 reporter cells, hypoxia 1% O2, 18 h, confirmatory, read-out: HIF-1α-NanoLuc IC50
# [10] = Table 1, percentage of inhibition compared to DMSO controls, read-out: HIF-1α-NanoLuc Efficacy (converted)
# [11] = Table S2, primary screen, read-out: Pathway inhibitors (primary screen) HIF-1α–NanoLuc Activity Efficacy
# [12] = Table S2, primary screen, read-out: Pathway inhibitors (primary screen) HIF-1α–NanoLuc Activity IC50
# [13] = Table S2, validation, read-out: Pathway inhibitors (validation) HIF-1α–NanoLuc Activity Efficacy
# [14] = Table S7, confirmatory screen, read-out: HIF-1α–NanoLuc confirmatory Efficacy
# [15] = Table S7, primary screen, read-out: HIF-1α–NanoLuc primary Efficacy
# [16] = Homo sapiens, ME-180, Table S7, confirmatory screen
# [17] = ME-180, Table S7, confirmatory screen, read-out: HRE–bla confirmatory IC50
# [18] = HCT-116, 72 h, Table S8, 3 days
# [19] = 18 h, read-out: IC50 (primary screen, HIF-1α–NanoLuc assay)
# [20] = read-out: Efficacy (primary screen, HIF-1α–NanoLuc assay)
# [21] = read-out: HIF-1α–NanoLuc confirmatory Efficacy
# [22] = read-out: HIF-1α–NanoLuc confirmatory IC50
# [23] = read-out: HIF-1α–NanoLuc primary Efficacy
# [24] = HCT-116, 72 h, Table S8, 3 days, read-out: HCT116 3-Day Viability IC50
# [25] = ME-180, 72 h, Table S8, 3 days, read-out: ME-180 3-Day Viability IC50
SMILES,"IC50 [1, 6] [nM]",IC50 (HCT116 cells; [7]) [nM],IC50 (ME-180 cells; [8]) [nM],IC50 [2] [nM],IC50 (HIF-1α–NanoLuc; [9]) [nM],"Emax [1, 4] [%]","Emax [1, 5] [%]",Viability (BLA) confirmatory IC50 (HRE–bla ME-180 cells),Emax [2] [%],Emax (HIF-1α–NanoLuc; [10]) [%],Emax (HIF-1α–NanoLuc; [13]) [%],Emax (HIF-1α–NanoLuc; [14]) [%],Emax (HIF-1α–NanoLuc; [15]) [%],Viability (Luc) confirmatory IC50 [3],IC50 (HRE–bla ME-180 cells; [16]) [nM],also measured
O=C1c2c(O)ccc(O)c2C(=O)c2c(NCCNCCO)ccc(NCCNCCO)c21 [Mitoxantrone],860 ± 520,11100 ± 4790,110 ± 30,4 ± 3,7650 ± 2130,99,99 ± 10,–,101,110,110 ± 5,110 ± 5,80,Inactive,13400 ± 4400,"IC50 (HIF-1α–NanoLuc; Table S1, primary screen, hypoxia 1% O2, 18 h, read-out: IC50 (primary screen, HIF-1α–NanoLuc assay)): 2380 nM; Emax (HIF-1α–NanoLuc; Table S1, primary screen, read-out: Efficacy (primary screen, HIF-1α–NanoLuc assay)): 80%; Emax (HIF-1α–NanoLuc; [11]): 80%; IC50 (HIF-1α–NanoLuc; [12]): 2370 nM"
CC[C@@]1(O)C(=O)OCc2c1cc1n(c2=O)Cc2cc3ccccc3nc2-1 [Camptothecin],200 ± 60,1000 ± 290,40,0.27 ± 0.31,–,84,84 ± 1,Inactive,134,–,–,–,–,–,–,–
C[C@H]1O[C@@H](O[C@H]2CC[C@@]3(C)[C@H](CC[C@@H]4[C@@H]3C[C@@H](O)[C@]3(C)[C@@H](C5=CC(=O)OC5)CC[C@]43O)C2)C[C@H](O)[C@@H]1O[C@H]1C[C@H](O)[C@H](O[C@H]2C[C@H](O)[C@H](O[C@@H]3O[C@H](CO)[C@@H](O)[C@H](O)[C@H]3O)[C@@H](C)O2)[C@@H](C)O1 [Deslanoside],–,–,–,–,–,–,102 ± 3,–,–,–,–,–,–,Inactive,320 ± 90,"IC50 (HIF-1α–NanoLuc; [19]): 300 nM; Emax (HIF-1α–NanoLuc; [20]): 115%; Emax (HIF-1α–NanoLuc; [21]): 108 ± 9%; IC50 (HIF-1α–NanoLuc; [22]): 390 ± 30 nM; Emax (HIF-1α–NanoLuc; [23]): 115%; IC50 [1, 17]: 160 ± 30 nM; Emax (HCT116 cells; [18]): 63 ± 8%; IC50 (HCT116 cells; [24]): 2590 ± 2870 nM; Emax (ME-180 cells; ME-180, 72 h, Table S8, 3 days): 97 ± 3%; IC50 (ME-180 cells; [25]): 310 ± 40 nM"
Oc1cccc(-c2nc(N3CCOCC3)c3oc4ncccc4c3n2)c1 [PI-103],150 ± 20,–,370 ± 20,320 ± 90,920 ± 60,62,62 ± 3,–,80,57,80 ± 3,57 ± 10,–,Inactive,770 ± 250,"IC50 (HIF-1α–NanoLuc; Table S2, validation, read-out: Pathway inhibitors (validation) HIF-1α–NanoLuc Activity IC50): 2770 ± 40 nM; 72-hr Viability HCT116 IC50 (HCT116 cells; Table 1, 72 h): Inactive; Angiogenesis inhibition, result in words [2]: submicromolar concentrations; Effect on expression of hypoxia-induced genes, in words (hypoxia signaling genes): decreased the expression levels of all hypoxia-induced genes tested"
C[C@H]1O[C@@H](O[C@H]2[C@@H](O)C[C@H](O[C@H]3[C@@H](O)C[C@H](O[C@H]4CC[C@@]5(C)[C@H](CC[C@@H]6[C@@H]5CC[C@]5(C)[C@@H](C7=CC(=O)OC7)CC[C@]65O)C4)O[C@@H]3C)O[C@@H]2C)C[C@H](O)[C@@H]1O [Digitoxin],–,–,–,–,–,–,97,–,–,–,–,–,–,Inactive,90 ± 30,"IC50 (HIF-1α–NanoLuc; [19]): 30 nM; Emax (HIF-1α–NanoLuc; [20]): 124%; Emax (HIF-1α–NanoLuc; [21]): 101 ± 1%; IC50 (HIF-1α–NanoLuc; [22]): 110 ± 10 nM; Emax (HIF-1α–NanoLuc; [23]): 124%; IC50 [1, 17]: 30 ± 10 nM; Emax (HCT116 cells; [18]): 97 ± 8%; IC50 (HCT116 cells; [24]): 2290 ± 3130 nM; Emax (ME-180 cells; ME-180, 72 h, Table S8, 3 days): 101 ± 4%; IC50 (ME-180 cells; [25]): 90 ± 20 nM"

# Second part, led by results:
"IC50 [1, 6] [nM]",IC50 (HCT116 cells; [7]) [nM],IC50 (ME-180 cells; [8]) [nM],IC50 [2] [nM],IC50 (HIF-1α–NanoLuc; [9]) [nM],SMILES,"Emax [1, 4] [%]","Emax [1, 5] [%]",Viability (BLA) confirmatory IC50 (HRE–bla ME-180 cells),Emax [2] [%],Emax (HIF-1α–NanoLuc; [10]) [%],Emax (HIF-1α–NanoLuc; [13]) [%],Emax (HIF-1α–NanoLuc; [14]) [%],Emax (HIF-1α–NanoLuc; [15]) [%],Viability (Luc) confirmatory IC50 [3],IC50 (HRE–bla ME-180 cells; [16]) [nM],also measured
620 ± 380,4300 ± 1200,100 ± 10,10,–,CC[C@@]1(O)C(=O)OCc2c1cc1n(c2=O)Cc2cc3c(CN(C)C)c(O)ccc3nc2-1 [Topotecan],131,131 ± 9,Inactive,80,–,–,–,–,–,–,–
230 ± 50,–,2040,40 ± 30,–,O=C(Nc1ccc([N+](=O)[O-])cc1Cl)c1cc(Cl)ccc1O [Niclosamide],91,84 ± 6,–,87,–,–,–,–,–,1630 ± 2580,"IC50 [1, 17]: 1670 ± 460 nM; Emax (HCT116 cells; [18]): 83 ± 6%"
20500 ± 8110,640 ± 110,60 ± 20,0.05 ± 0.05,2980 ± 4640,CC(=O)Nc1cccc(-n2c(=O)n(C3CC3)c(=O)c3c(Nc4ccc(I)cc4F)n(C)c(=O)c(C)c32)c1 [Trametinib],53,53 ± 9,Inactive,89,69,69 ± 5,69 ± 5,–,Inactive,–,"Angiogenesis inhibition, result in words [2]: picomolar IC50 value; Effect on expression of hypoxia-induced genes, in words (hypoxia signaling genes): decreased expression levels of HIF1A and many hypoxia responsive genes"
17000 ± 3170,37200,19000 ± 4340,–,11300 ± 3710,CCN(CC)CCNC(=O)c1c(C)[nH]c(/C=C2\C(=O)Nc3ccc(F)cc32)c1C [Sunitinib],81,81 ± 32,–,–,80,80 ± 15,80 ± 15,60,–,16000 ± 8130,"Emax (HIF-1α–NanoLuc; [11]): 60%; IC50 (HIF-1α–NanoLuc; [12]): 1680 nM; IC50 ([3]; Homo sapiens, HCT-116, Table S7, confirmatory screen, 1% O2, 18 h): 26400 ± 9410 nM; Emax ([3]; Homo sapiens, HCT-116, Table S7, confirmatory screen, read-out: Viability (Luc) confirmatory Efficacy): 26 ± 7%; Emax (HRE–bla ME-180 cells; Homo sapiens, ME-180, Table S7, confirmatory screen, read-out: Viability (BLA) confirmatory Efficacy): 60 ± 38%; HCT116 3-Day Viability IC50 (HCT116 cells; Table S8, 3 days): Inactive"
210 ± 50,–,1820 ± 740,110 ± 60,1580 ± 450,COc1c(C)c2c(c(O)c1C/C=C(\C)CCC(=O)OCCN1CCOCC1)C(=O)OC2 [Mycophenolate mofetil],58,58 ± 4,–,93,59,–,59 ± 5,61,Inactive,530,"IC50 (HIF-1α–NanoLuc; Table S7, primary screen, read-out: HIF-1α–NanoLuc primary IC50): 330 nM; 72-hr Viability HCT116 IC50 (HCT116 cells; Table 1, 72 h): Inactive; Angiogenesis inhibition, result in words [2]: submicromolar concentrations"
11000 ± 750,13300 ± 1520,18600,4060 ± 1490,–,Nc1ncn([C@@H]2O[C@H](CO)[C@@H](O)[C@H]2O)c(=O)n1 [5-Azacitidine],94,94 ± 2,Inactive,80,–,–,–,–,–,–,–
–,22800 ± 3890,270 ± 60,10,1490 ± 1300,Cn1cnc2c(F)c(Nc3ccc(Br)cc3Cl)c(C(=O)NOCCO)cc21 [Selumetinib],–,–,Inactive,92,48,48 ± 10,48 ± 10,62,Inactive,–,"Emax (HIF-1α–NanoLuc; [11]): 62%; IC50 (HIF-1α–NanoLuc; [12]): 40 nM; HRE-bla IC50 ([1]; Table 1, ME-180 cells, 1% O2, 18 h): Inactive"

# Reference: article PMC4884984, “Identification of approved and investigational drugs that inhibit hypoxia-inducible factor-1 signaling” (Oncotarget, 2016)
